Data published in article PMC3411462, “Long-acting κ opioid antagonists nor-BNI, GNTI and JDTic: pharmacokinetics in mice and lipophilicity” (BMC Pharmacology, 2012).
“Also recorded” adds a separate entry of the source. Like-named read-outs stand apart in the source and are kept apart here. Marks after values point to notes of the source that are not given here.

Tests used:
[1] = Brain homogenate binding (unbound fraction by ultracentrifugation); format: in vitro ADME
Description: Unbound fractions in brain homogenate and plasma were determined by ultracentrifugation as described previously. Briefly, drug-spiked matrices (5 μM drug in plasma or brain homogenate) were centrifuged at 600,000 g for 5 h at 37 °C (plasma) or 5 °C (brain). Aliquots of the middle (water) layer were added to an equal volume of blank matrix and extracted with 5 volumes of acetonitrile containing internal standard. Aliquots of the original spiked matrix were mixed with an equal volume of blank matrix and 2 volumes of plasma ultrafiltrate (plasma) or phosphate-buffered saline (tissue) and extracted with 10 volumes of acetonitrile. Extracts were centrifuged and analyzed by LC-MS-MS. Fraction unbound was calculated from the ratio of concentration in the water layer to that in the original spiked matrix, corrected for dilution as described previously. Based on previous results for basic drugs, in vivo free fraction in brain was assumed to be at least 3-fold lower than the in vitro free fraction in brain homogenate.

[2] = cited from earlier work
[3] = parameters: method as in PMID 17049114; conditions: mice, i.p.; cited from earlier work
[4] = molecular target: T1, human P-gp (Homo sapiens, UniProt P08183); test: LLC-PK1-MDR1 cell permeation and efflux; format: in vitro ADME; conditions: cells expressing human P-gp
T1 construct: expressed in transfected cells; host or cells: LLC-PK1 (pig kidney epithelial cells) transfected with human MDR1 at Amgen
Description: (§1) Pig kidney epithelial cells (LLC-PK1) were obtained from American Type Culture Collection (Manassas, VA). Transfection with human MDR1 gene was conducted at Amgen (Thousand Oaks, CA). Bi-directional permeation assays were performed as described previously. […] Cells were seeded onto Transwell filter membranes (0.4 μm pore size, surface area = 0.7 cm2) at a density of 200,000 cells/well. Compound incubations (in duplicate) were performed 5 days post-seeding. To determine efflux, compounds were tested at 5 μM in the presence of 0.1% BSA. […] Samples were analyzed by LC-MS-MS.

[5] = molecular target: T2, P-gp (human MDR1) (Homo sapiens, UniProt P08183); test: LLC-PK1-MDR1 cell permeation and efflux; format: in vitro ADME; conditions: for Papp A→B at 120 min, 5 μM / Papp B→A at 120 min, 5 μM: pig (LLC-PK1 cells) transfected with human MDR1, LLC-PK1, 0.1% BSA, n = 2; for Papp A→B at 120 min, 5 μM: apical to basolateral; for Papp B→A at 120 min, 5 μM: basolateral to apical; for efflux ratio at 120 min, 5 μM: pig (LLC-PK1 cells) transfected with human MDR1, LLC-PK1-MDR1 monolayers, read-out: Efflux ratio (B → A/A → B)
T2 construct: expressed in transfected cells; host or cells: LLC-PK1 (pig kidney epithelial cells) transfected with human MDR1 at Amgen
Description: as §1

[6] = test system: κ opioid receptor; parameters: method as in PMID 15464069; conditions: intragastric administration; cited from earlier work
[7] = Water solubility; format: physicochemical; conditions: distilled water, thermodynamic from solid, 25 °C, salt tested
Description: Distilled water was added slowly by microsyringe to 10–15 mg of drug in a glass vial, swirling until no solid was visible.

[8] = parameters: method as in earlier work; conditions: preliminary reports; cited from earlier work
[9] = test system: μ opioid receptor; parameters: method as in PMID 1326932; conditions: after subcutaneous administration; cited from earlier work
[10] = 5 μM drug, mean, n = 3, corrected for dilution, read-out: Fraction unbound, Brain homogenate
[11] = Brain homogenate, read-out: % free (uncorrected)

T1 sequence (P08183 whole entry): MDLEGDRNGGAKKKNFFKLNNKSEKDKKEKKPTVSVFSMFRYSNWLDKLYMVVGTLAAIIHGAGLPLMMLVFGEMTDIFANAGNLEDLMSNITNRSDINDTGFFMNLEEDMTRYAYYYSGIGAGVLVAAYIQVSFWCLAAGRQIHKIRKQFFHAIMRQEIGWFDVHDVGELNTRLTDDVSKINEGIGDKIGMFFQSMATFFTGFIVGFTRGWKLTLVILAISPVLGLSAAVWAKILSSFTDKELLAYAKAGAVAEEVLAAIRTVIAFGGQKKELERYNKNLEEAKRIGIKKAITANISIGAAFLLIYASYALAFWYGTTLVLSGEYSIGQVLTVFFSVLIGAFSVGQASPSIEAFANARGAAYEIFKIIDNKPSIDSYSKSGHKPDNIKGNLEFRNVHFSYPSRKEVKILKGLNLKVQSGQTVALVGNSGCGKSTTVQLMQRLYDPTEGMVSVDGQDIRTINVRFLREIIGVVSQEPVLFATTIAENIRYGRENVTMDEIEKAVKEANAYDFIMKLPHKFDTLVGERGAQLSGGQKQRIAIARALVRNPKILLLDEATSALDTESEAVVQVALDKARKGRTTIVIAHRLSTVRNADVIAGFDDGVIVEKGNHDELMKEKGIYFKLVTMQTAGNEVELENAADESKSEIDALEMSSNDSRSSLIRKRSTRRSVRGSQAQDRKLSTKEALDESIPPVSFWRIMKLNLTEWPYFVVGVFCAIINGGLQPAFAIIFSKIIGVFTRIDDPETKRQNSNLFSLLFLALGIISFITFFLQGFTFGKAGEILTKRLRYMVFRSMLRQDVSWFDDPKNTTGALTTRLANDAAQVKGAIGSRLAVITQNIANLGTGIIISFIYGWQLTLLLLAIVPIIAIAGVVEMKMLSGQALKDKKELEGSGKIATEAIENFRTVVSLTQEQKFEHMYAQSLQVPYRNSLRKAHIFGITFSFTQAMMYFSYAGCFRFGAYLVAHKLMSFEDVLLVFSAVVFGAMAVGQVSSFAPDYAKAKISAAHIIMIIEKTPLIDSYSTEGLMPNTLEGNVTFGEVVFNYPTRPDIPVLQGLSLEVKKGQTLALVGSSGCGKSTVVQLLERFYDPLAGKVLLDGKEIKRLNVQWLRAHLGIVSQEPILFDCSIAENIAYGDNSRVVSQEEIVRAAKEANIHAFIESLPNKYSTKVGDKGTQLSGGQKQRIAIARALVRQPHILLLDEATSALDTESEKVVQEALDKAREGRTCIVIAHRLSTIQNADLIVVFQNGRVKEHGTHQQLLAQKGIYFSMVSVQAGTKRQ
T2 sequence (P08183 whole entry): as above

Row | Compound | fraction unbound at 5 h, 5 μM [1, 10] | fraction unbound at 5 h, 5 μM [1, 11] | Water solubility ([2]; 25 °C, ref Tocris product information sheet) | Water solubility ([2]; ref Tocris product information sheet (Table 1)) | Sedation, duration [3] | Sedation, time to maximum [3] [min] | Active transport / P-gp-mediated efflux [4] | Papp A→B at 120 min, 5 μM [5] [×10⁻⁶ cm/s] | Papp B→A at 120 min, 5 μM [5] [×10⁻⁶ cm/s] | efflux ratio at 120 min, 5 μM [5] | fraction unbound at 5 h, 5 μM ([1]; assumed at least 3-fold lower than in homogenate, read-out: Fu,brain (in vivo est.)) | Delay in onset of κ antagonism [6] | solubility [7] [mM] | fraction unbound at 5 h, 5 μM ([1]; mouse, assumed at least 3-fold lower than in homogenate, read-out: Fu,brain (in vivo est.)) | Detection in mouse brain after administration [8] | μ antagonism, duration [9] | μ antagonism, time of peak [9]
1 | N=C(N)Nc1ccc2[nH]c3c(c2c1)C[C@@]1(O)[C@H]2Cc4ccc(O)c5c4[C@@]1(CCN2CC1CC1)[C@H]3O5 [GNTI, 5’-guanidinonaltrindole] | 0.07 | 0.19 | >100^a mmol L^-1 | at least 100 mM | less than 3 hours | ≤ 20 | did not; also recorded: No active transport | 0.4 | 0.6 | 1.5 | – | – | – | – | – | – | –
2 | CC(C)[C@@H](CN1CC[C@@](C)(c2cccc(O)c2)[C@@H](C)C1)NC(=O)[C@H]1Cc2ccc(O)cc2CN1 [JDTic, (3R)-7-Hydroxy-N-((1S)-1-{[(3R,4R)-4-(3-hydroxyphenyl)-3,4-dimethyl-1-piperidinyl]methyl}-2-methylpropyl)-1,2,3,4-tetrahydro-3-isoquinolinecarboxamide] | 0.07 | 0.18 | – | – | – | – | showed P-gp-mediated efflux; also recorded: very high efflux ratio | 0.5 | 24 | 48 | < 0.0233 | greater than 6 hours | > 45 | – | – | – | –
3 | Oc1ccc2c3c1O[C@H]1c4[nH]c5c(c4C[C@@]4(O)[C@@H](C2)N(CC2CC2)CC[C@]314)C[C@@]1(O)[C@H]2Cc3ccc(O)c4c3[C@@]1(CCN2CC1CC1)[C@H]5O4 [nor-BNI, norbinaltorphimine] | 0.12 | 0.28 | – | – | – | – | did not; also recorded: No active transport | 0.2 | 0.3 | – | – | – | > 45 | < 0.04 | up to 21 days | approximately 4 hours | approximately 30 minutes
